Experimental data reported in patent US20210322426A1, “METHODS OF TREATING CANCER WITH PI3K ALPHA INHIBITORS AND METFORMIN” (Genentech, Inc., priority 2018, published 2021).
Where two headings read alike, the source gives them in different places.

What was measured:
[1] = test system: patients with HR+/HER2- breast cancer; conditions: in combination with letrozole; cited from earlier work
[2] = test system: patients with HR+/HER2- breast cancer; conditions: in combination with fulvestrant; cited from earlier work
[3] = test system: tumor cells bearing mutant PI3K; conditions: mutant PI3K over wild type (WT) PI3K cells; cited from earlier work
[4] = molecular target: Class I PI3K alpha isoform (Homo sapiens, UniProt P42336); conditions: PI3K alpha versus PI3K beta, delta and gamma isoforms; cited from earlier work
[5] = test system: human breast xenograft models harboring PIK3CA mutations; test: tumor growth in human breast xenograft models harboring PIK3CA mutations; type: in vivo
[6] = test system: PIK3CA-mutant breast cancer cell lines; test: proliferation and apoptosis of PIK3CA-mutant breast cancer cell lines; type: cell-based; conditions: nonclinical studies
mutant p110 alpha = test: degradation of mutant p110 alpha (nonclinical studies)
[7] = test system: PI3K-pathway markers pAKT, pPRAS40, pS6; test: downstream PI3K-pathway markers (pAKT, pPRAS40, pS6)

Sequence of Class I PI3K alpha isoform (P42336 whole entry, canonical isoform): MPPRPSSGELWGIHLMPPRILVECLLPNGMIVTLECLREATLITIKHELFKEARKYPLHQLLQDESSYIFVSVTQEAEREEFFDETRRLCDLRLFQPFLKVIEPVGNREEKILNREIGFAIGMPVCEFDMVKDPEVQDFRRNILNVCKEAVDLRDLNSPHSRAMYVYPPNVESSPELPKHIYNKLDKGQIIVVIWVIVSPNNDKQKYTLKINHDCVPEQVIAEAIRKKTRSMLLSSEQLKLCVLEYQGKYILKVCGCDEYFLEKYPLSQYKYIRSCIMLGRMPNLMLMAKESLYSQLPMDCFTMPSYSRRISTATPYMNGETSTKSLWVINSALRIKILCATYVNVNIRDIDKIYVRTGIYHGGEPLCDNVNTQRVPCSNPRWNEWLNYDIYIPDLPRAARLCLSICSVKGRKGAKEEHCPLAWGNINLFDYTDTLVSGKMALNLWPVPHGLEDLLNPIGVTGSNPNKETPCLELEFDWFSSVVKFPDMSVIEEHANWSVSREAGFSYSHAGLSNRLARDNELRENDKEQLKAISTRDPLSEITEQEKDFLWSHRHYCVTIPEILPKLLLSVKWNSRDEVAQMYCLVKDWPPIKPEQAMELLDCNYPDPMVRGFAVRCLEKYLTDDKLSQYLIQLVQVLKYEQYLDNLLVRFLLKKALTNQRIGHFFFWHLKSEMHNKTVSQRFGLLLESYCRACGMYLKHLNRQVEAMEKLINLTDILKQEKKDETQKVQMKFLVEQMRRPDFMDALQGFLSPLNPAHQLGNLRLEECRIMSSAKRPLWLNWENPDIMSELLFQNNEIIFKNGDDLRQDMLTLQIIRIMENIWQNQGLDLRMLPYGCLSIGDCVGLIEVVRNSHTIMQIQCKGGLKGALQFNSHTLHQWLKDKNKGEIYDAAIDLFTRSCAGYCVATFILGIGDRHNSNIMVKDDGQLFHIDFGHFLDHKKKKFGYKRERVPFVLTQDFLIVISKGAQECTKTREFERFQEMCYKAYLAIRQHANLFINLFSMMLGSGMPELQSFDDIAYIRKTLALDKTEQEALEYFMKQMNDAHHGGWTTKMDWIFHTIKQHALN
Sequence of Class I PI3K alpha isoform (P27986 whole entry partner, canonical isoform): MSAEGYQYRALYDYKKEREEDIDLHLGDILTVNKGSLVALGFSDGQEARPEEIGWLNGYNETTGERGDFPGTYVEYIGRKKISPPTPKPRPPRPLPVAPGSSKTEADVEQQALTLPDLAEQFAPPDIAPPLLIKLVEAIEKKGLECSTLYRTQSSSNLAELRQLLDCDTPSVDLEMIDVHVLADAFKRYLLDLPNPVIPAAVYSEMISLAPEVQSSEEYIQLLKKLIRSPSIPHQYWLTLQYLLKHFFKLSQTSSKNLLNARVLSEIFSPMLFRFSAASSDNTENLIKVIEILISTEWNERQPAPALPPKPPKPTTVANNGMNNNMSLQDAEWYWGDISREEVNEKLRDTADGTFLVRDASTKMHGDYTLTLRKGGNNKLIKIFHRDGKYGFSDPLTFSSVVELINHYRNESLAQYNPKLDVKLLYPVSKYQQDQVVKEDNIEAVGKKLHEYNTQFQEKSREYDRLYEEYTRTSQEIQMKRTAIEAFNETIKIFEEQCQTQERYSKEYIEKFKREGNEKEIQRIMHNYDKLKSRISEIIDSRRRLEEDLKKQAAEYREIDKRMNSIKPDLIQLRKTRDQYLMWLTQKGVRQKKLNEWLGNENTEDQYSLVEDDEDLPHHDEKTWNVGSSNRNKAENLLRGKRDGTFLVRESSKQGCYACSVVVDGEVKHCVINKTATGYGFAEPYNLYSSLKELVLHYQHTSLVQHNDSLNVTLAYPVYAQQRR

| Structure (SMILES) | patients requiring 1 dose reduction of palbociclib [1] | patients with cycle delays [1] | patients with dose holds [1] | patients requiring 1 dose reduction of palbociclib [2] | patients with cycle delays [2] | patients with dose holds [2] | potency in mutant PI3K tumor cells over wild type PI3K cells [3] | fold less potent biochemical inhibition for other Class I PI3K isoforms [4] | tumor growth in xenograft models [5] | apoptosis of PIK3CA-mutant breast cancer cell lines [6] | proliferation of PIK3CA-mutant breast cancer cell lines [6] | degradation of mutant p110 alpha (mutant p110 alpha) | downstream PI3K-pathway markers [7] |
| --- | --- | --- | --- | --- | --- | --- | --- | --- | --- | --- | --- | --- | --- |
| CC(=O)c1c(C)c2cnc(Nc3ccc(N4CCNCC4)cn3)nc2n(C2CCCC2)c1=O [palbociclib, 6-acetyl-8-cyclopentyl-5-methyl-2-(5-(piperazin-1-yl)pyridin-2-ylamino)pyrido[2,3-d]pyrimidin-7(8H)-one] | 36% | 68% | 70% | 34% | 36% | 54% | – | – | – | – | – | – | – |
| C[C@H](Nc1ccc2c(c1)OCCn1cc(N3C(=O)OC[C@H]3C(F)F)nc1-2)C(N)=O [GDC-0077, (S)-2-((2-((S)-4-(difluoromethyl)-2-oxooxazolidin-3-yl)-5,6-dihydrobenzo[f]imidazo[1,2-d][1,4]oxazepin-9-yl)amino)propanamide] | – | – | – | – | – | – | increased potency | > 300 fold | inhibits tumor growth | induces apoptosis | inhibits proliferation | specifically degrades mutant p110 alpha | reduces downstream PI3K-pathway markers |
